2 compounds from patent US20070299062A1 (The Procter & Gamble Company, priority 2006, published 2007) can be followed below.

The target in one experiment is T1, 5-HT2c receptor (Homo sapiens, UniProt P28335).
T1 construct: purchased Perkin-Elmer or Euroscreen (named only as possible suppliers)
T1 sequence (P28335 33-458): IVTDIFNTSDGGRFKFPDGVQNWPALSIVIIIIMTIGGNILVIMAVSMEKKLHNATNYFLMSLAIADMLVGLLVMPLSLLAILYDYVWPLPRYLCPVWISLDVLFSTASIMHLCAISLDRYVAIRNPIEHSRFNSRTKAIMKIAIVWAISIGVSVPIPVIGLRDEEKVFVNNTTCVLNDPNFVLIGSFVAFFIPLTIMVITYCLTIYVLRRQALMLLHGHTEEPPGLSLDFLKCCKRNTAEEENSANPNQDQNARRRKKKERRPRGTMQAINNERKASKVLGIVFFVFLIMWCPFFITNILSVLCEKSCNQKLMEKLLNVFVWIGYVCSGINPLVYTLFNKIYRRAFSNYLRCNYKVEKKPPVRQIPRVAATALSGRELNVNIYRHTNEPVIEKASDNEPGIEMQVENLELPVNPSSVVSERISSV
Kind of experiment: 5-HT2c receptor binding assay (3H-mesulergine competition). The following applies: 1 nM 3H-mesulergine; read-out: Ki (nM) binding data 5-HT2C. How it is done:
MCH antagonist compounds are evaluated for binding to the serotonin 5-HT2c receptor to determine receptor selectivity. Binding activity is assessed using a competitive assay with ^3H-mesulergine (Perkin Elmer), a 5-HT2c selective ligand, on membrane containing the 5-HT2c receptor. Briefly, 1 nM ^3H-mesulergine and varying concentrations of the compound are incubated with 5-HT2c receptor membranes, following an incubation period, the membranes are washed and ^3H-mesulergine bound to membranes is measured in a liquid scintillation counter. The amount of bound ^3H-mesulergine at the varying concentration of competitor compound is used to derive the affinity (Ki) of the compound for the 5-HT2c receptor. 5-HT2c receptor containing membranes are readily available from several companies including Perkin-Elmer and Euroscreen.

The next experiment deals with MCH-1R (UniProt Q99705). Description: MCH-1R competition binding assay. How it is done: In vitro binding and function assays are performed on membranes derived from cells or tissues expressing endogenous MCH1R. Competition binding assays are performed to identify high affinity compounds. Briefly, either radiolabeled or europium labeled MCH with varying concentrations of competitor compound which are incubated with membranes expressing the receptor. Rat brain membrane or cell lines, including but not limited to human Kelly neuroblastoma cells, A-431 epidermoid cells, and rat PC-12 cells are known to express endogenous MCH1R and are used in the assay. Binding is allowed to proceed until equilibrium is reached then bound labeled MCH is separated from free MCH by capturing membranes onto a filter. The filters are washed to remove loosely associated MCH and labeled MCH is quantified. Data is analyzed and IC50 and Ki are calculated to determine compound affinity.

The term Ki denotes a measure of affinity in units of concentration, obtained from inhibition or displacement. Consider `O=c1c2sc(-c3ccc(Cl)cc3)cc2ncn1[C@H]1CCc2cc(CN3CCOCC3)ccc2C1` [(S)-6-(4-Chlorophenyl)-3-[6-(morpholinomethyl)-1,2,3,4-tetrahydronapthalene-2-yl]thieno[3,2-d]pyrimidin-4-(3H)-one], for which the Ki at 5-HT2c receptor was greater than 100000 nM; at MCH-1R, 103 nM.

In the case of “(S)-6-(4-Chlorophenyl)-3-(6-((4-morpholinopiperidin-1-yl)methyl)-1,2,3,4-tetrhaydronapthalene-2-yl)thieno[3,2,-d]pyrimidin-4-(3H)-one”, the values for the Ki at 5-HT2c receptor and at MCH-1R were greater than 100000 nM and 16 nM, respectively.
